According to PMC3847553, “Kinetic properties of “dual” orexin receptor antagonists at OX1R and OX2R orexin receptors” (Frontiers in Neuroscience, 2013):

Key:
human OX1R [1] = target: T1, human OX1R (Homo sapiens, UniProt O43613); assay: [3H]-BBAC competition binding over time, CHO-hOX1 membranes
T1 construct: expressed in transfected cells; host or cells: CHO; cells from GNF, San Diego
T1 sequence (O43613 1-425): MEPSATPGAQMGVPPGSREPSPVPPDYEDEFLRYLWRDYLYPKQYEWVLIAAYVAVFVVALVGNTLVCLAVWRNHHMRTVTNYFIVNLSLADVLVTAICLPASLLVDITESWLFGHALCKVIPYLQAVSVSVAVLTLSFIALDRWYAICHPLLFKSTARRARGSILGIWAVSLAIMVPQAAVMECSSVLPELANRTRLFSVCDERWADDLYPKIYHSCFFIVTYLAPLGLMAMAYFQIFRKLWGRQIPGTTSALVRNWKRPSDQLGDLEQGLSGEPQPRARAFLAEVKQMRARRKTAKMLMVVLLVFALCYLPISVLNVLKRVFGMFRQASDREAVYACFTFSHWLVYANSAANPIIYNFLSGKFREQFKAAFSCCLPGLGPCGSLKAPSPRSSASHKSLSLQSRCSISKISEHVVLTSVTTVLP
Text: (§1) Chinese Hamster Ovary (CHO) cells stably transfected with the cDNA encoding the human OX1R (CHO-hOX1) or OX2R (CHO-hOX2) were used (kindly provided by T. Cremer and Dr. S. Geisse, NIBR Basel, Switzerland). For measurements of calcium accumulation using FLIPR® (Fluorescent Imaging Plate Reader) assay, CHO or Human Embryonic Kidney (HEK) cells stably expressing mouse, rat or human OX1R or OX2R (kindly provided by Dr. A. Chen, GNF, San Diego, CA, USA) were used. […] Cells were maintained in a humidified incubator at 37°C in 5% CO2. For crude cell membrane preparations, cells were washed and harvested in 10 mM HEPES (pH 7.5), and centrifuged at 4°C for 5 min at 2500 g. The cell pellet was either stored at −80°C or used directly.
(§2) Cell membranes were resuspended in binding assay buffer at 4°C (10 mM HEPES, pH 7.5, 0.5% (w/v) bovine serum albumin (BSA), 5 mM MgCl2, 1 mM CaCl2, and 0.05% Tween 20) and homogenized with a Polytron homogenizer at 50 Hz for 20 s. […] Radioactivity was quantified using a TopCount™ microplate counter (Perkin Elmer).
(§3) All data was analyzed using GraphPad Prism 4.0 (GraphPad, San Diego, USA). The saturation data was fit to a non-linear regression model for saturation binding with consideration for one site binding. […] Competition binding data was fit to a non-linear regression model for competition binding with consideration for variable one site binding with a non-fixed Hill slope.

human OX2R [2] = target: T2, human OX2R (Homo sapiens, UniProt O43614); assay: [3H]-BBAC competition binding over time, CHO-hOX2 membranes
T2 construct: expressed in transfected cells; host or cells: CHO; cells from GNF, San Diego
T2 sequence (O43614 1-444): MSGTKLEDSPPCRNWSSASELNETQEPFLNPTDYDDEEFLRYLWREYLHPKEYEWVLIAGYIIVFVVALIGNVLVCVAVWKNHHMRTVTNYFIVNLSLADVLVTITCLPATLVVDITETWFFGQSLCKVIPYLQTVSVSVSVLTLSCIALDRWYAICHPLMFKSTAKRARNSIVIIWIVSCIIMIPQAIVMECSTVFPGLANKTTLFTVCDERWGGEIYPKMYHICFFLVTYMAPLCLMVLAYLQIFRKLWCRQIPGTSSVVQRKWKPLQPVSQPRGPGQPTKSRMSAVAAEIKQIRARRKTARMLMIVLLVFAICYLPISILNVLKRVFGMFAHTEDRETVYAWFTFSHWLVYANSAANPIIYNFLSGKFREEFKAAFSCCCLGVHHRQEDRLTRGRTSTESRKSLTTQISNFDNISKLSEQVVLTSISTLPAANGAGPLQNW
Text: as §1, §2, §3

OX1R [3] = assay: FLIPR calcium assay, OX1R, species not given; format: cell-based; settings: species not stated
Description: (§4) Determination of orexin A-stimulated calcium accumulation was performed over 2 days using FLIPR® (Fluorescent imaging plate reader from Molecular Devices-FLIPR384). Cells expressing either human, rat or mouse OX1R or OX2R were seeded at 8,000 cells/well in black 384 well clear bottom plates and incubated overnight at 37°C. The following day, medium was discarded and cells loaded with 50 μ l of 1 mM Fluo-4 AM (Invitrogen F14202) in dimethyl sulfoxide in working buffer (Hanks' balanced salt solution, 10 mM HEPES) and incubated for 60 min at 37°C. The loading buffer was removed and cells were washed with 100 μ l working buffer containing […], 0.1% BSA, and 2.5 mM Probenecid (pH 7.4) to remove the excess Fluo-4 AM. Working buffer was added and plates were incubated 10–15 min at room temperature. The assay plate was then transferred to the Molecular Devices-FLIPR384. The baseline calcium signal was recorded for 10 s, then the antagonist of interest was injected (10 μl at 3 times the final concentration) and the calcium signal recorded every second for 1 min, then every 2 s 40 times. Plates were then incubated at room temperature for 30 min, 1, 2, or 4 h.

OX2R = assay: FLIPR calcium assay, OX2R, species not given; format: cell-based; settings: species not stated
Description: as §4

sleep = system: sleep; design: method as in Fox et al., 2013; settings: rodent studies; ref Fox et al., 2013; cited from earlier work
human OX1R [4] = target: T1, human OX1R; assay: [3H]-BBAC saturation binding, CHO-hOX1 membranes
Text: as §1, §2
(§5) Data in the figures is representative of the mean ± s.e.m. of a single experiment.
(§6) All data was analyzed using GraphPad Prism 4.0 (GraphPad, San Diego, USA). The saturation data was fit to a non-linear regression model for saturation binding with consideration for one site binding. […]

human OX2R [5] = target: T2, human OX2R; assay: [3H]-BBAC saturation binding, CHO-hOX2 membranes
Text: as §1, §2, §5, §6

OX1R [6] = system: OX1R; design: method as in Sakurai et al., 1998; settings: competition radioligand binding, ref Sakurai et al., 1998; cited from earlier work

Cn1c(SCC(=O)N2CCC[C@H]2C(=O)Nc2ccccc2-c2ccccc2)nc2ccccc21 [BBAC, (S)-N-([1,1′-biphenyl]-2-yl)-1-(2-((1-methyl-1H-benzo[d]imidazol-2-yl)thio)acetyl)pyrrolidine-2-carboxamide]
effect of incubation time on competition curves (human OX1R [1]; competition for 4.6 nM [3H]-BBAC, 15 min to 4 h, human OX1R): no significant difference in IC50 values measured between 30 min and 4 h | time to reach equilibrium (human OX1R [1]; competition for [3H]-BBAC, OX1R): 15 to 30 min | effect of incubation time on competition curves (human OX2R [2]; competition for 4.6 nM [3H]-BBAC, 15 min to 4 h, human OX2R): no significant difference in IC50 values measured between 30 min and 4 h | time to reach equilibrium (human OX2R [2]; competition for [3H]-BBAC, OX2R): 15 to 30 min | effect of incubation time on potency in calcium assay (OX1R [3]): constant potency values irrespective of the incubation time | effect of incubation time on potency in calcium assay (OX2R): constant potency values irrespective of the incubation time

C[C@@H]1CC[C@@H](COc2ccc(F)cn2)CN1C(=O)c1cc(F)ccc1-c1ncccn1 [DORA-22]
effect on sleep (sleep): promotes sleep with dose-dependent increases in REM sleep

Cn1c(SCC(=O)N2CCC[C@H]2C(=O)Nc2ccccc2-c2ccccc2)nc2ccccc21 [[^3H]-BBAC, (S)-N-([1,1′-biphenyl]-2-yl)-1-(2-((1-methyl-1H-benzo[d]imidazol-2-yl)thio)acetyl)pyrrolidine-2-carboxamide]
incubation time sufficient to reach Bmax and KD values comparable to 4 h (human OX1R [4]): 15 to 30 min | Kd (human OX2R [5]; CHO-hOX2 membranes, room temperature): ~1 nM | incubation time sufficient to reach Bmax and KD values comparable to 4 h (human OX2R [5]; OX2R): 15 to 30 min

orexin B: endogenous orexin peptide
affinity (OX1R [6]): 250 nM
